US20190082696A1, “METHOD FOR CONTROLLING PESTS OF PLANTS” (BASF SE, priority 2016, published 2019)

Tested on: green peach aphid (Myzus persicae)
Test: Biological activity of mixtures: green peach aphid systemic test with Colby analysis
Type: in vivo
Conditions: 3 days
Excerpt: Synergism can be described as an interaction where the combined effect of two or more compounds is greater than the sum of the individual effects of each of the compounds. The presence of a synergistic effect in terms of percent control, between two mixing partners (X and Y) can be calculated using the Colby equation (Colby, S. R., 1967, Calculating Synergistic and Antagonistic Responses in Herbicide Combinations, Weeds, 15, 20-22):
When the observed combined control effect is greater than the expected combined control effect (E), then the combined effect is synergistic.
The analysis of synergism or antagonism between the mixtures or compositions was determined using Colby's equation.
For evaluating control of green peach aphid (Myzus persicae) through systemic means the test unit consisted of 96-well-microtiter plates containing liquid artificial diet under an artificial membrane.
The compounds or mixtures were formulated using a solution containing 75% water and 25% DMSO. Different concentrations of formulated compounds or mixtures were pipetted into the aphid diet, using a custom built pipetter, at two replications. […]
After application, 5-8 adult aphids were placed on the artificial membrane inside the microtiter plate wells. […] Aphid mortality and fecundity was then visually assessed.

Row | SMILES | Average Control % (10 ppm) [%] | Average Control % (0.4 ppm) [%]
1 | CC1(C)C(C=C(Cl)Cl)C1C(=O)OC(C#N)c1cccc(Oc2ccccc2)c1 (centres unmarked) [Alphacypermethrin] | 0 | 
2 | CCC(=O)N1CC2(C1)OCc1cc(C3=NOC(c4cc(Cl)c(F)c(Cl)c4)(C(F)(F)F)C3)ccc12 (centres unmarked) [Compound I-1] |  | 0
